We go through 6 molecules from EP2891654B1, “Optically pure benzyl-4-chlorophenyl-C-glucoside derivatives as SGLT inhibitors (diabetes mellitus)” (Xuanzhu Pharma Co., Ltd., priority 2014, dated 2015).

A short description of data set [1]: rat in-vivo pharmacokinetic assay (PO). The settings on record: Sprague-Dawley (SD), male SD rats, 10 mg/kg; for Cmax: peak concentration in the plasma; for AUC(0-t) / AUC(0-inf) / half-life / Tmax: plasma; for AUC(0-t): area under curve from time=0→t; for AUC(0-inf): area under curve from time=0→∞; for Tmax: time to peak the concentration in the plasma. The protocol: Assay animals: 6-8 weeks aged male SD rats (purchased from Vital River Laboratories), 3 rats per compound, weighing 200-240g.
Solvent: 0.5% MC(methyl cellulose) solution + 0.1% SDS (sodium dodecyl sulfate).
Intragastric administration (PO): See Table 2 Table 2 Administration of compounds in the rat PK (pharmacokinetic) assay
Blood collection: each of 200 µL whole blood were collected at 0.17hr, 0.5hr, 1hr, 2hr, 4hr, 6hr, 8hr, 24hr, 30hr, 48hr, 54hr and 72hr. The collected blood samples were centrifuged at 4°C at 8000rpm in a low temperature high-speed centrifuge (5415R, Eppendorf) for 6mins to separate the blood plasma. The separated plasma was preserved at -80 °C in a refrigerator.
20µL of the plasma was carefully taken out, to which was added 600µL of an internal standard MTBE (methyl tert-butyl ether) solution (containing internal standard dapagliflozin 25ng/ml). The plasma was subjected to a vortex at 1500 rpm for 10mins, and then centrifuged at 12000 rpm for 5mins. 400µL of the supernatant was taken and blow-dried with nitrogen gas. The dried substance was redissolved with 200µL of a redissolving solution (acetonitrile:water=7:3). The solution was subjected to a vortex for 10mins, and analyzed with LC-MS/MS (API4000, Aplplied Biosystems). Table 3. Rat PK (pharmacokinetic) evaluation results (PO) for the compounds

The next data set has as its target T1, SGLT-2 (Homo sapiens, UniProt P31639).
T1 construct: expressed in transfected cells
T1 sequence (P31639 1-672): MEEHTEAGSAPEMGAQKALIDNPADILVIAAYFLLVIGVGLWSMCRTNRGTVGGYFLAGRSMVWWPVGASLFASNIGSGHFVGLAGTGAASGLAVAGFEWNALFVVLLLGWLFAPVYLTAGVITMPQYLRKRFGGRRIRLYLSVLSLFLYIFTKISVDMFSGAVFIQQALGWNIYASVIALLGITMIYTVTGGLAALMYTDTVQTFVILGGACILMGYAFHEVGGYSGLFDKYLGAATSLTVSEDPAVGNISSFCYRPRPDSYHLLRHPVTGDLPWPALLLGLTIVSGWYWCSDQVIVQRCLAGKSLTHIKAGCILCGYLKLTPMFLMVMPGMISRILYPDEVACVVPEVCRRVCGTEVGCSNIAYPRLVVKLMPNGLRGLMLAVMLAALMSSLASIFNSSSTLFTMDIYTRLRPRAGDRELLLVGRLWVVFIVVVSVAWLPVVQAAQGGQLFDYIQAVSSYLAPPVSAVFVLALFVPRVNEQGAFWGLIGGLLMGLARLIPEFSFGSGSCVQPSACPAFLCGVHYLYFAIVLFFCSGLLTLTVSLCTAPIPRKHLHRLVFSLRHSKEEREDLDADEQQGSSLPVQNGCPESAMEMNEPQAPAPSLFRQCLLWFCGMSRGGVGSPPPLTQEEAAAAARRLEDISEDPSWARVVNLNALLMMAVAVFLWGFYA
Nature of the data set: in-vitro assay: inhibition of sodium dependent [14C]-AMG uptake into CHO cells stably expressing human SGLT-2. The format is cell-based. The settings on record: for IC50: CHO cells stably expressing human SGLT-2, [14C]-AMG uptake, 37°C, 1hr; for Selectivity: ratio SGLT-1 IC50 / SGLT-2 IC50. On the procedure:
In the in-vitro assay for the pharmacological activities of the present compounds, the human SGLT-2 and SGLT-1 sequences were transfected to Chinese hamster ovary cells to express stably. By measuring inhibition of the sodium dependent adsorption of [^14C]-labeled […]-D-glucopyranoside (AMG) into the cells, the half-inhibition concentration IC50 was determined.
Buffer A (KRH-Na^+): 120 mM NaCl, 4.7 mM KCI, 1.2 mM MgCl2, 2.2 mM CaCl2, 10 mM HEPES (PH 7.4 with 1 mM Tris).
Buffer A- (KRH-NMG): 120 mM NMG, 4.7 mM KCl, 1.2 mM MgCl2, 2.2 mM CaCl2, 10 mM HEPES (PH 7.4 with 1 mM Tris).
Buffer D: 120 mM NaCl, 4.7 mM KCl, 1.2 mM MgCl2, 2.2 mM CaCl2, 10 mM HEPES, 0.5 mM phlorizin (PH 7.4 with 1 mM Tris).
Assay method: Human SGLT-2 and SGLT-1 sequences were stably expressed in the CHO cells. The cell culture was conducted in a 96-well plate for 12hr. The plate was washed with KRH-Na+ (Buffer A) or KRH-NMG (Buffer A-) buffering solution for three times, 200µL/well. Then the plate was added with a buffering solution containing Buffer A or Buffer A- plus [^14C]-AMG (10 µCi/mL), 100µL/well. The cell culture was conducted at 37°C for 1hr. Then, 100µL of an ice pre-cooled buffering solution (Buffer D) was added to terminate the assay. The plate was washed for five times. Then an ice pre-cooled lytic buffering solution (100mM NaOH solution) was added, 20 µL/well, and the centrifugation at 600rpm was conducted for 5mins. Then Microscint 40 solution was added, 80 µl/well, and the centrifugation at 600rpm was conducted for 5mins. Finally, the radioactivity of [^14C]-AMG was detected with MicroBeta Trilux (purchased from PerkinElmer Co. Ltd.) according to the scintillation counting method, and the half-inhibition concentration IC50 was calculated.

In the next data set the target is T2, SGLT-1 (Homo sapiens, UniProt P13866).
T2 construct: expressed in transfected cells
T2 sequence (P13866 1-664): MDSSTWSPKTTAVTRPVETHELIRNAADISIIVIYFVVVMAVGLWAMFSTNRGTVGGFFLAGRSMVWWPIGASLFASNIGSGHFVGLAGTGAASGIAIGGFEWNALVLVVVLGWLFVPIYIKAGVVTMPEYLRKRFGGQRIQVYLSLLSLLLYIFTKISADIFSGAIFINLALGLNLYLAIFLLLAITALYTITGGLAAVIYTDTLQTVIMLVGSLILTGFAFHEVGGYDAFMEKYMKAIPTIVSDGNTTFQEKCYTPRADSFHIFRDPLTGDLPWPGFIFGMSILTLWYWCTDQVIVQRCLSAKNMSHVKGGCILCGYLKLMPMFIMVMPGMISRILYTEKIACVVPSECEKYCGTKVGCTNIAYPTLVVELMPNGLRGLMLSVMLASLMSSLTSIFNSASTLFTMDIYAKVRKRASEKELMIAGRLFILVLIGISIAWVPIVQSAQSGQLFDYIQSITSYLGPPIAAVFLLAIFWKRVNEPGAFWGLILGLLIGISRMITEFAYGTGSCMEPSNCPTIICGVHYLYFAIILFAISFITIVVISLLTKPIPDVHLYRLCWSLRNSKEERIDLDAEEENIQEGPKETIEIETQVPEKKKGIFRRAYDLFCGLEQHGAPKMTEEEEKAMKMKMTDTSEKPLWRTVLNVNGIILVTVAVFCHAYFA
Nature of the data set: in-vitro assay: inhibition of sodium dependent [14C]-AMG uptake into CHO cells stably expressing human SGLT-1. The format is cell-based. The conditions noted are these: 37°C, 1hr. The protocol:
In the in-vitro assay for the pharmacological activities of the present compounds, the human SGLT-2 and SGLT-1 sequences were transfected to Chinese hamster ovary cells to express stably. By measuring inhibition of the sodium dependent adsorption of [^14C]-labeled […]-D-glucopyranoside (AMG) into the cells, the half-inhibition concentration IC50 was determined. […] Buffer D: 120 mM NaCl, 4.7 mM KCl, 1.2 mM MgCl2, 2.2 mM CaCl2, 10 mM HEPES, 0.5 mM phlorizin (PH 7.4 with 1 mM Tris). Assay method: Human SGLT-2 and SGLT-1 sequences were stably expressed in the CHO cells. […] The plate was washed for five times. […] Finally, the radioactivity of [^14C]-AMG was detected with MicroBeta Trilux (purchased from PerkinElmer Co. Ltd.) according to the scintillation counting method, and the half-inhibition concentration IC50 was calculated.

Turning to `OC[C@H]1O[C@@H](c2ccc(Cl)c(Cc3ccc(OC4CC5CC5C4)cc3)c2)[C@H](O)[C@@H](O)[C@@H]1O` (some centres unmarked) [Reference compound 2], in data set [1], the Cmax (as a rule, the peak of the concentration-time curve) stood at 4980 ng/mL; the AUC(0-t) – broadly, exposure summed from dosing to a finite time, without extrapolation to infinity – is 69300 ng·h/mL; the AUC(0-inf) (as a rule, the area under the concentration-time curve extrapolated to infinity) amounted to 69400 ng·h/mL; the half-life (usually the time needed for the level to fall by half in the phase considered) is 8.18 h. Also, in data set [1], the Tmax (in general, the time from dosing to the highest level) is 2 h.
On to `OC[C@H]1O[C@H](c2ccc(Cl)c(Cc3ccc(O[C@@H]4C[C@@H]5C[C@@H]5C4)cc3)c2)[C@H](O)[C@@H](O)[C@@H]1O` [Compound represented by formula (V), (2R,3R,4R,5S,6R)-2-(3-(4-(((1R,3r,5S)-bicyclo[3.1.0]hexan-3-yl)oxy)benzyl)-4-chlorophenyl)-6-(hydroxymethyl)tetrahydro-2H-pyran-3,4,5-triol], for which the IC50 (in general, the concentration needed to halve the response being measured) on SGLT-2 amounted to 282 nM. This lies in the sub-micromolar range.
With `OC[C@H]1O[C@@H](c2ccc(Cl)c(Cc3ccc(O[C@H]4C[C@@H]5C[C@@H]5C4)cc3)c2)[C@H](O)[C@@H](O)[C@@H]1O` [Compound represented by formula (II), (2S,3R,4R,5S,6R)-2-(3-(4-(((1R,3s,5S)-bicyclo[3.1.0]hexan-3-yl)oxy)benzyl)-4-chlorophenyl)-6-(hydroxymethyl)tetrahydro-2H-pyran-3,4,5-triol], the IC50 against SGLT-1 was determined as 17200 nM. The Tmax in data set [1] is 1 h. On SGLT-2, the IC50 came to 2.5 nM and the Selectivity was 6886.93.
On to `OC[C@H]1O[C@@H](c2ccc(Cl)c(Cc3ccc(O[C@@H]4C[C@@H]5C[C@@H]5C4)cc3)c2)[C@H](O)[C@@H](O)[C@@H]1O` [Compound represented by formula (III), (2S,3R,4R,5S,6R)-2-(3-(4-(((1R,3r,5S)-bicyclo[3.1.0]hexan-3-yl)oxy)benzyl)-4-chlorophenyl)-6-(hydroxymethyl)tetrahydro-2H-pyran-3,4,5-triol], for which, on SGLT-2, half-maximal inhibition (IC50) was put at 7.83 nM.
Consider `OC[C@H]1OC(c2ccc(Cl)c(Cc3ccc(OC4CC5CC5C4)cc3)c2)[C@H](O)[C@@H](O)[C@@H]1O` (some centres unmarked) [Reference compound 1], for which half-maximal inhibition against SGLT-1 (IC50) was put at 2400 nM. In data set [1], this molecule had a Cmax of 4140 ng/mL, an area under the curve AUC(0-t) of 69600 ng·h/mL, an AUC(0-inf) of 70300 ng·h/mL and a half-life of 10.3 h. The Tmax in data set [1] is 2 h. Moreover, at SGLT-2, the IC50 is 3.63 nM and the Selectivity stood at 660.52.
At SGLT-2, `OC[C@H]1O[C@H](c2ccc(Cl)c(Cc3ccc(O[C@H]4C[C@@H]5C[C@@H]5C4)cc3)c2)[C@H](O)[C@@H](O)[C@@H]1O` [Compound represented by formula (IV), (2R,3R,4R,5S,6R)-2-(3-(4-(((1R,3s,5S)-bicyclo[3.1.0]hexan-3-yl)oxy)benzyl)-4-chlorophenyl)-6-(hydroxymethyl)tetrahydro-2H-pyran-3,4,5-triol] returned an IC50 of 1110 nM.
